Source: US10201585B2, “Methods for treatment of atherosclerosis” (Stealth Peptides International, Inc., priority 2012, dated 2019)
Values joined by “and” are separate entries in the source; they are usually repeats but may differ in a detail not shown here. Equal values may be shown once. “Also recorded” adds a separate entry of the source.

Columns and labels:
[1] = system: Apoprotein E deficient mice; assay: En face analysis of atherosclerotic lesions, thoracic aorta (Sudan IV, % of aortic surface covered by lipid); format: in vivo; conditions: 12 weeks
Source text: (§1) Apoprotein E deficient mice (Jackson Laboratories, 600 Main Street, Bar Harbor, Me.) were used in this study. The mice were male, 7-8 weeks of age, and between 18-20 g in weight. An initial total cholesterol measurement was made on 30 mice, and the mice were grouped into two groups of 15 to match the total cholesterol measurements. Both groups were fed a “western diet” (40 kcal % butterfat, 0.15% [wt/wt] cholesterol, Harlan Teklad diet TD-88137). Starting at t=0, the control group of 15 mice received vehicle only (phosphate buffered saline at pH 7.4), while the test group of 15 mice received aromatic-cationic peptide reconstituted in phosphate buffered saline. Body weights of the mice were recorded weekly, and mortality checks were performed daily.
The aromatic-cationic peptide D-Arg-2′6′-Dmt-Lys-Phe-NH2 (sterile lyophilized powder, reconstituted in phosphate buffered saline) was tested. For the 12-week study, test mice received a single, daily dose of the peptide, subcutaneously at 1 mg/kg. Control mice received a single daily dose of vehicle.
Following the 12 week treatment, mice were euthanized within 48 hours after the last dose by CO2 asphyxiation and the vascular tree was perfused with 5 mL of phosphate buffered saline (pH 7.4). The aorta and aortic sinus were removed for examination. Thoracic aorta were isolated, trimmed of fat, and fixed in formalin for 48-72 hours before analysis. For en face analysis, aortas were laid out and pinned on black matrix for photography, and stained with Sudan IV. Vessels were imaged for surface involvement using a Nikon computerized image analysis system and the percent of the aortic surface area covered by lipid was calculated. Two determinations were done for each image (Quan 1 and Quan 2), and the average was computed. The data were then computed by group and statistically analyzed. Following staining and morphometric analysis, total lipids were extracted from the aortas using the Bligh-Dyer method. WAKO Diagnostics kits (WAKO Diagnostics, Inc., 1600 Bellwood Road Richmond, Va. 23237-1326) were then used to evaluate total cholesterol, free cholesterol, and cholesterol ester. Cholesterol levels were quantitate nad expressed relative to protein levels. Values are expressed as μg lipid per mg protein (see e.g., FIG. 1).

[2] = system: Apoprotein E deficient mice; assay: Total lesion area in aortic root 300 μm across aortic valve (cryosections, lipid staining); format: in vivo; set-up: Total lesion area in aortic root 300 μm across aortic valve / Total lesion area in aortic root 300 μm across aortic valve, AVE: unit not given here
Source text: as §1
The aromatic-cationic peptide D-Arg-2′6′-Dmt-Lys-Phe-NH2 (sterile lyophilized powder, reconstituted in phosphate buffered saline) was tested. […]
For the aortic sinus, the heart and approximately 5 mm of the ascending aorta was cut from the remainder of the aorta. […] The sinus was imaged at 5 step levels in the region of interest, i.e., the aortic root, for a total distance of 300 μm and the lipid-staining areas and measured (total cross sectional area) using a Nikon computerized image analysis system. The data were then computed by group and statistically analyzed.

[3] = ApoE deficient mice, western diet, peptide 1 mg/kg s.c. daily, individual mouse (sample 16-30)

Substance: D-Arg-2′6′-Dmt-Lys-Phe-NH2
- Ave. % of Lesion (average of Quan 1 and Quan 2) [1, 3]: 2.615% and 0.892% and 9.027% and 3.019% and 7.009% and 4.833% and 1.996% and 1.205% and 9.948% and 2.763% and 6.814% and 4.734% and 0.834% and 11.239% and 12.990%
- Quan 1 (first determination of % of the aortic surface covered by lipid) [1, 3]: 10.000% and 4.700%
- Quan 2 (second determination of % of the aortic surface covered by lipid) [1, 3]: 0.870%
- Ave (average % of the surface of the aortas showing lesions, group) ([1]; group mean of 15 test mice, peptide 1 mg/kg s.c. daily, vehicle group 7.189): 5.328%
- Atherosclerotic lesions in the aorta (% lesion area), in words ([1]; treated versus vehicle, 1 mg/kg s.c. daily (Table 7, FIG. 1A), 1 mg/kg): reduces; also recorded: lower
- Total lesion area in aortic root 300 μm across aortic valve, AVE ([2]; group mean of 15 test mice, 12 weeks, vehicle group 351.77): 282.72
- Total (mean) lesion area in the aortic root, in words ([2]; treated versus vehicle, 12 weeks (Table 9, FIG. 3)): reduces; also recorded: lower
